Data from patent publication US4863951A, “Pharmacologically active amino-5,6,7,8-tetrahydronaphtho [2,3-B] furan compounds” (ADIR Et Cie, priority 1987, dated 1989).
Counter-ions that a name gives are not always drawn. Like-named read-outs stand apart in the source and are kept apart here.

What was measured:
[1] = test system: apomorphine-induced rearing-up; assay: Antagonism of apomorphine-induced rearing-up behavior in mice; format: in vivo; conditions: Mus musculus, ip, apomorphine 0.75 mg.kg^-1 s.c.
Protocol: Studied in the test of antagonism of apomorphine-induced rearing-up following the subcutaneous administration of a dose of 0.75 mg.kg^-1 of this substance in mice, the compounds of general formula I act in a clear-cut manner at doses greater than or equal to 2.5 mg.kg^-1 (i.p.). The same results are observed when the compounds of general formula I are administered orally at a dose of 20 mg.kg^-1. The activity of the compounds was assessed according to the method described by Protais P, Costentin J and Schwartz J. C. in Psychopharmacology (1976), 50, p. 1-6.
(s=significant difference, p<0.05).

[2] = test system: isolation-induced aggression; assay: Antiaggressive effects: isolation-induced aggression in mice; format: in vivo; conditions: isolated mice, i.p.
From the text: (§1) The antiaggressive effects of the compounds of the invention were investigated by two methods, one of them testing for an inhibition of aggressive behavior in peviously isolated mice (Yen C. Y., Stanger A. L., and Millman N, Arch. Int. Pharmacodyn. Therap. (1959), 123, p. 179-185), and the other in isolated and bulbectomized rats (Garattini S. and Sigg E. B. "Aggressive Behaviour" p. 47-55 Ed. Excerpta Medica Found., Amsterdam, 1969).
(§2) (Tables IX and X, s=significant, p<0.05).

[3] = test system: apomorphine-induced hypothermia; assay: Antagonism with respect to apomorphine-induced hypothermia in mice; format: in vivo; conditions: Mus musculus, ip, apomorphine 1 mg.kg^-1 s.c., after 2 hours
Protocol: Testing for an antagonism with respect to apomorphine-induced hypothermia in mice was performed according to the method described by CHERMAT R. and PONCELET M. in J. Pharmac. (1983), 14, No. 1, p. 93-97. The dose of apomorphine administered subcutaneously was 1 mg.kg^-1. Tables VII and VIII show the percentage antagonism of the hypothermia observed after 2 hours.

[4] = test system: apomorphine-induced stereotypy; assay: Antagonism of apomorphine-induced stereotypy in rats; format: in vivo; conditions: Rattus norvegicus, ip, 0.5 h, apomorphine 1.5 mg.kg^-1 i.p., 30 minutes
Protocol: The inhibitory activity of the compounds of the invention with respect to apomorphine- or amphetamine-induced stereotypy in rats was assessed using the scale of scoring of stereotyped movements described by Quinton R. M. and Halliwell G. in Nature (1963), 200, p. 178-179.
Apomorphine or amphetamine was administered to the animals intraperitoneally at a dose of 1.5 mg.kg^-1. The percentage inhibition (-) or potentiation (+) of the stereotypy score (% ISS) shown in Tables IV and V for apomorphine corresponds to a measurement time of 30 minutes. In contrast, the percentage inhibition of the stereotypy score shown in Table VI for amphetamine corresponds to a measurement time of 3 hours. […]

[5] = test system: reserpine-induced hypothermia; assay: Antagonism of reserpine-induced hypothermia; format: in vivo, Swiss CD male mice; conditions: mice, reserpine 2.5 mg.kg^-1 i.p.
Protocol: The antidepressant effects of the compounds of the invention were investigated by assessing the antagonism of reserpine-induced hypothermia and the antagonism of the ponto-geniculo-occipital waves induced by the compound Ro4-1284 in cats.
The study is carried out on Swiss CD male mice (27-28 g). After distribution into groups of 10 animals each, reserpine is injected intraperitoneally at a dose of 2.5 mg.kg^-1. Three hours later, the compounds undergoing trial are administered intraperitoneally. The rectal temperature of the animals is measured one hour and two hours after the second treatment, and compared with the initial temperature To of these same animals, measured immediately before the administration of the compounds undergoing trial.

[6] = test system: aggression of isolated, bulbectomized rats; assay: Antiaggressive effects: aggression of isolated, bulbectomized rats; format: in vivo; conditions: i.p., 5 mg.kg^-1, hydrochloride
From the text: as §1, §2

[7] = read-out: % inhibition of rearing-up, mice, i.p. dose 20 mg.kg^-1
[8] = read-out: % inhibition of rearing-up, mice, i.p. dose 40 mg.kg^-1
[9] = read-out: % inhibition of rearing-up, mice, i.p. dose 10 mg.kg^-1
[10] = 2 h, read-out: % antagonism of hypothermia, mice, i.p. dose 10
[11] = 2 h, read-out: % antagonism of hypothermia, mice, i.p. dose 20
[12] = read-out: % ISS (inhibition (-) or potentiation (+) of the stereotypy score), rats, i.p. dose 10 mg.kg^-1
[13] = rats, i.p. dose 10 mg.kg^-1, read-out: % ISS (inhibition (-) or potentiation (+) of the stereotypy score)
[14] = mice, i.p. dose 20 mg.kg^-1, read-out: % inhibition of rearing-up
[15] = mice, i.p. dose 40 mg.kg^-1, read-out: % inhibition of rearing-up
[16] = rats, i.p. dose 20 mg.kg^-1, read-out: % ISS (inhibition (-) or potentiation (+) of the stereotypy score)
[17] = mice, i.p. dose 10 mg.kg^-1, read-out: % inhibition of rearing-up
[18] = mice, i.p. dose 10, read-out: % antagonism of hypothermia
[19] = mice, i.p. dose 20, read-out: % antagonism of hypothermia

## NC1CCc2cc3c(cc2C1)CCO3 (racemic) [Example 19, dl-6-Amino-2,3,5,6,7,8-hexahydronaphtho[2,3-b]furan hydrochloride]
[1]; [7]
  change in vivo at 20 mg/kg: -57%
[1]; [8]
  change in vivo at 40 mg/kg: -90%

## CN(CC1CCCCC1)C1CCc2cc3c(cc2C1)OCC3 (racemic) [Example 10, dl-7-(N-Cyclohexylmethyl-N-methylamino)-2,3,5,6,7,8-hexahydronaphtho[2,3-b]furan hydrochloride]
[2]; 5 mg.kg^-1
  % of pairs of mice showing no sign of fighting: 0%
[2]; 10 mg.kg^-1
  % of pairs of mice showing no sign of fighting: 11%
[2]; 20 mg.kg^-1
  % of pairs of mice showing no sign of fighting: 60%
[1]; [9]
  change in vivo at 10 mg/kg: 11%
[1]; [7]
  change in vivo at 20 mg/kg: 11%
[1]; [8]
  change in vivo at 40 mg/kg: -96%

## CCCN(CCC)C1CCc2cc3c(cc2C1)OCC3 (racemic) [Example 5, dl-7-(N,N-Dipropylamino)-2,3,5,6,7,8-hexahydronaphtho[2,3-b]furan]
[2]; 20 mg.kg^-1
  % of pairs of mice showing no sign of fighting: 50%
[2]; 40 mg.kg^-1
  % of pairs of mice showing no sign of fighting: 89%
[1]; [7]
  change in vivo at 20 mg/kg: 27%
[1]; [8]
  change in vivo at 40 mg/kg: -54%
[3]; 2 h, read-out: % antagonism of hypothermia, mice, i.p. dose 5
  change in vivo at 5 mg/kg: -20%
[3]; [10]
  change in vivo at 10 mg/kg: -47%
[3]; [11]
  change in vivo at 20 mg/kg: -68%
[4]; read-out: % ISS (inhibition (-) or potentiation (+) of the stereotypy score), rats, i.p. dose 5 mg.kg^-1
  change in vivo at 5 mg/kg: -3%
[4]; [12]
  change in vivo at 10 mg/kg: 0%

## NC1CCCc2cc3c(cc21)CCO3 (racemic) [Example 18, dl-5-Amino-2,3,5,6,7,8-hexahydronaphtho[2,3,-b]furan hydrochloride]
[1]; [7]
  change in vivo at 20 mg/kg: -12%
[1]; [8]
  change in vivo at 40 mg/kg: 6%

## CC(CCCCC(=O)O)NC1CCc2cc3c(cc2C1)OCC3 (racemic) [Example 29, dl-6-{N-(2,3,5,6,7,8-Hexahydronaphtho[2,3-b]furan-7-yl)amino}-6-methylhexanoic acid hydrochloride]
[4]; [13]
  change in vivo at 10 mg/kg: 11%

## NC1CCCc2cc3c(cc21)OCC3 (racemic) [Example 15, dl-8-Amino-2,3,5,6,7,8-hexahydronaphtho[2,3-b]furan hyrochloride]
[1]; [7]
  change in vivo at 20 mg/kg: -9%
[1]; [8]
  change in vivo at 40 mg/kg: 0%

## CC(CCCCCC(=O)O)NC1CCc2cc3c(cc2C1)OCC3 (racemic) [Example 31, dl-7-{N-(2,3,5,6,7,8-Hexahydronaphtho[2,3-b]furan-7-yl)amino}-7-methylheptanoic acid hydrochloride]
[1]; [14]
  change in vivo at 20 mg/kg: 5%
[1]; [15]
  change in vivo at 40 mg/kg: 22%
[4]; [13]
  change in vivo at 10 mg/kg: 5%
[4]; [16]
  change in vivo at 20 mg/kg: -3%

## O=C1CCCN1C1CCc2cc3c(cc2C1)OCC3 (racemic) [Example 37, dl-7-(2-Oxo-1-pyrrolidinyl)-2,3,5,6,7,8-hexahydronaphtho[2,3-b]furan]
[4]; [13]
  change in vivo at 10 mg/kg: -6%
[4]; [16]
  change in vivo at 20 mg/kg: -14%

## NC1CCc2cc3ccoc3cc2C1 (racemic) [Example 21, dl-7-Amino-5,6,7,8-tetrahydronaphtho[2,3-b]furan hydrochloride]
[1]; [9]
  change in vivo at 10 mg/kg: -56%
[1]; [7]
  change in vivo at 20 mg/kg: -84%

## CC(CCCC(=O)O)NC1CCc2cc3c(cc2C1)OCC3 (racemic) [Example 27]
[5]; 10 mg.kg^-1 i.p.
  % inhibition of hypothermia: -13%
[5]; 20 mg.kg^-1 i.p.
  % inhibition of hypothermia: -21%
[1]; [17]
  change in vivo at 10 mg/kg: -46%
[1]; [14]
  change in vivo at 20 mg/kg: -63%
[3]; [18]
  change in vivo at 10 mg/kg: -5%
[3]; [19]
  change in vivo at 20 mg/kg: -32%
[4]; [13]
  change in vivo at 10 mg/kg: -5%
[4]; [16]
  change in vivo at 20 mg/kg: -8%

## CNC1CCc2cc3c(cc2C1)OCC3 (stereo not drawn) [Example 39, l-7-(N-Methylamino)-2,3,5,6,7,8-hexahydronaphtho[2,3-b]furan hydrochloride]
[6]
  % of rats rendered non-aggressive: 58%
[5]; 2.5 mg.kg^-1 i.p., hydrochloride
  % inhibition of hypothermia: +37%
[5]; 5 mg.kg^-1 i.p., hydrochloride
  % inhibition of hypothermia: +14%
[5]; 10 mg.kg^-1 i.p., hydrochloride
  % inhibition of hypothermia: +6%
[5]; 20 mg.kg^-1 i.p.
  % inhibition of hypothermia: +15%
[2]; 2.5 mg.kg^-1
  % of pairs of mice showing no sign of fighting: 70%
[2]; 5 mg.kg^-1, hydrochloride
  % of pairs of mice showing no sign of fighting: 90%

## FC(F)(F)CNC1CCc2cc3c(cc2C1)OCC3 (racemic) [Example 35, dl-7-[N-(2,2,2-Trifluoroethyl)amino]-2,3,5,6,7,8-hexahdronaphtho[2,3-b]furan hydrochloride]
[5]; 10 mg.kg^-1 i.p.
  % inhibition of hypothermia: -20%
[5]; 20 mg.kg^-1 i.p.
  % inhibition of hypothermia: -4%
[1]; [17]
  change in vivo at 10 mg/kg: -30%
[1]; [14]
  change in vivo at 20 mg/kg: -38%
[3]; [18]
  change in vivo at 10 mg/kg: -16%
[3]; [19]
  change in vivo at 20 mg/kg: -31%

## CCCNC1CCc2cc3c(cc2C1)OCC3 (racemic) [Example 34, dl-7-N-n-Propylamino)-2,3,5,6,7,8-hexahydronaphtho[2,3,-b]furan hydrochloride]
[1]; [9]
  change in vivo at 10 mg/kg: -23%
[1]; [8]
  change in vivo at 40 mg/kg: -100%
[3]; [10]
  change in vivo at 10 mg/kg: -7%
[3]; [11]
  change in vivo at 20 mg/kg: -16%
[4]; [12]
  change in vivo at 10 mg/kg: -68%
[4]; read-out: % ISS (inhibition (-) or potentiation (+) of the stereotypy score), rats, i.p. dose 20 mg.kg^-1
  change in vivo at 20 mg/kg: -70%

## O=C(O)CCCCCNC1CCc2cc3c(cc2C1)OCC3 (racemic) [Example 25, dl-6-{N-(2,3,6,7,8-Hexahydronaphtho[2,3-b]furan-7-yl)amino}hexanoic acid hydrochloride]
[2]; 10 mg.kg^-1
  % of pairs of mice showing no sign of fighting: 20%
[4]; [13]
  change in vivo at 10 mg/kg: 9%

## OCCCCCCNC1CCc2cc3c(cc2C1)OCC3 (racemic) [Example 32, dl-7-[N-(6-Hydroxyhexyl)amino]-2,3,5,6,7,8-hexahydronaphtho[2,3-b]furan hydrochloride]
[5]; 10 mg.kg^-1 i.p.
  % inhibition of hypothermia: -1%
[5]; 20 mg.kg^-1 i.p.
  % inhibition of hypothermia: -29%
[2]; 5 mg.kg^-1
  % of pairs of mice showing no sign of fighting: 10%
[2]; 20 mg.kg^-1
  % of pairs of mice showing no sign of fighting: 30%
[1]; [14]
  change in vivo at 20 mg/kg: -32%
[1]; [15]
  change in vivo at 40 mg/kg: -40%
[3]; [18]
  change in vivo at 10 mg/kg: -10%
[3]; [19]
  change in vivo at 20 mg/kg: -13%
[4]; [13]
  change in vivo at 10 mg/kg: -3%
[4]; [16]
  change in vivo at 20 mg/kg: -5%
